The assay relates to HeLa-AD8 Env / CEM-CCR5 cell fusion, luciferase. As to the kind of experiment: HIV-1 AD8 envelope cell-cell fusion blockers – cherry-pick, dose response (AID 652062).

“And” between values parts separate entries of the source, which are not always exact repeats. Equal entries are not always repeated.

For `COC(=O)C1(C(=O)OC)C[C@H](c2ccc(OC)cc2)N(Cc2ccccc2OC)[C@@H]1c1cccs1`, the concentration at half-maximal activity (AC50) (commonly the concentration giving half of the maximal activity seen) is 2.49 µM and 11.3 µM.
For the molecule `C[C@H](CO)N1C[C@H](C)[C@H](CN(C)S(=O)(=O)c2ccccc2)Oc2ncc(/C=C/c3ccccc3)cc2C1=O`, the AC50 was 23.8 µM and 3.07 µM.
Under `O=C(C[C@H]1C[C@H]2c3cc(NC(=O)c4ccc5c(c4)OCO5)ccc3O[C@H]2[C@H](CO)O1)NCc1ccc(Oc2ccccc2)cc1` stands 15.1 µM.

The values are drawn from PubChem BioAssay AID652062 (Broad Institute, 2013).
